As a reminder, the inhibition is the percentage by which the read-out fell short of the control. As a reminder, the IC50 is the concentration needed to halve the response being measured.

The source of these data is ChEMBL document CHEMBL3864155, “Dihydrostilbenes and diarylpropanes: Synthesis and in vitro pharmacological evaluation as potent nitric oxide production inhibition agents” (Bioorg Med Chem Lett, 2016).

A short description of data set [1]: Antiinflammatory activity in mouse RAW264.7 cells assessed as inhibition of LPS-induced nitric oxide production at 1 uM after 18 hrs by Griess assay relative to control. It counts as functional. Particulars: RAW264.7, 18 h. (Griess reagent forms a coloured azo dye with nitrite.)
Data set [2] relates to RAW264.7. As to the kind of experiment: Effect on LPS-induced iNOS expression in mouse RAW264.7 cells at 10 uM after 18 hrs by Western blot method relative to LPS. The class given is functional. On the technique in general: In western blotting, separated proteins are transferred to a membrane and probed.
Data set [3] in a line: Antiinflammatory activity in mouse RAW264.7 cells assessed as inhibition of LPS-induced nitric oxide production at 10 uM after 18 hrs by Griess assay relative to control. The class given is functional. Particulars: RAW264.7, 18 h.
Data set [4] is described as follows: Cytotoxicity against mouse RAW264.7 cells assessed as cell proliferation rate at 10 uM after 24 hrs by MTS assay relative to control. The class given is toxicity. Particulars: read-out: Activity.
Data set [5] in a line: Cytotoxicity against mouse RAW264.7 cells assessed as decrease in cell proliferation rate after 24 hrs by MTS assay. It counts as toxicity. In general terms: Tetrazolium assays rely on reduction of a dye to a coloured formazan, in cell work by metabolically active cells.
The nature of data set [6]: Cytotoxicity against mouse RAW264.7 cells assessed as cell proliferation rate at 50 uM after 24 hrs by MTS assay relative to control. It counts as toxicity. Particulars: read-out: Activity.
Data set [7] in a line: Cytotoxicity against mouse RAW264.7 cells assessed as cell proliferation rate at 100 uM after 24 hrs by MTS assay relative to control. Particulars: read-out: Activity. The class given is toxicity.
Data set [8] in a line: Cytotoxicity against mouse RAW264.7 cells assessed as cell proliferation rate at 1 uM after 24 hrs by MTS assay relative to control. It counts as toxicity. Particulars: read-out: Activity.
Data set [9] relates to RAW264.7. As to the kind of experiment: Antiinflammatory activity in mouse RAW264.7 cells assessed as inhibition of LPS-induced nitric oxide production at 1 to 10 uM after 18 hrs by Griess assay. The class given is functional, cell-based.
Data set [10] in a line: Antiinflammatory activity in mouse RAW264.7 cells assessed as inhibition of LPS-induced nitric oxide production at 50 to 100 uM after 18 hrs by Griess assay relative to control. The class given is functional.

Structures are written as SMILES. A value given as a limit tells only on which side of the number the result lay.

In the case of `CNC(=N)NCCC[C@H](N)C(=O)O` [TILARGININE], in data set [1], the inhibition at 1 µM amounted to 15%. In the data set on RAW264.7 [2], the “fold change (FC)” value is given as 0.92 - 1.02. In addition, the inhibition at 10 µM in data set [3] was found to be 90.1%. Further, the viability at 24 h, 10 µM in data set [4] was determined as 100%. For the same molecule, the IC50 at 24 h in [5] is 2.73 µM. In addition, the viability at 24 h, 50 µM in [6] worked out at 113%. For the same molecule, the viability at 24 h, 100 µM in data set [7] stood at 97.2%. The viability at 24 h, 1 µM in [8] was 100%.

Regarding `COc1cc(CCCc2cc(OC)c(OC)cc2O)ccc1O`, the inhibition at 1 µM in [1] came out at 38.2%. Besides, the “fold change (FC)” value in the data set on RAW264.7 [2] was determined as 0.73. The inhibition result in the data set with RAW264.7 [9] is “Dose-dependent effect”. Besides, the inhibition at 10 µM in data set [3] stood at 56.5%. For the same molecule, the viability at 24 h, 10 µM in [4] is 113%. The IC50 at 24 h in data set [5] turned out to be 4.46 µM. For the same molecule, the viability at 24 h, 50 µM in data set [6] came out at 88.4%. Besides, the viability at 24 h, 100 µM in data set [7] came to 80.9%. Further, in data set [10], the “inhibition (INH)” value is >80%. Also, the viability at 24 h, 1 µM in data set [8] came to 135%.

As for `COc1cc(CCCc2cc(OC)c(O)c(OC)c2)ccc1O`, the inhibition at 1 µM in data set [1] was 27.2%. The “fold change (FC)” value in the data set on RAW264.7 [2] was determined as 0.81. Also, the inhibition at 10 µM in data set [3] amounted to 21.8%. Further, the viability at 24 h, 10 µM in [4] came to 98.7%. In addition, the IC50 at 24 h in data set [5] came to 16.4 µM. The viability at 24 h, 50 µM in [6] was 88.7%. Further, the viability at 24 h, 100 µM in data set [7] was determined as 82%. For the same molecule, in data set [10], the “inhibition (INH)” value was >80%. Moreover, the viability at 24 h, 1 µM in data set [8] stood at 98.4%.

Consider `COc1ccc(CCCc2ccc(O)c(O)c2O)cc1OC`, for which the inhibition at 1 µM in [1] worked out at 29.6%. In the data set on RAW264.7 [2], the “fold change (FC)” value is 0.71. For the same molecule, the inhibition at 10 µM in [3] stood at 28.6%. For the same molecule, the viability at 24 h, 10 µM in data set [4] came out at 130%. For the same molecule, the IC50 at 24 h in data set [5] is 10.7 µM. The viability at 24 h, 50 µM in data set [6] was 86.4%. In data set [7], the viability at 24 h, 100 µM was 73.2%. In addition, in [10], the “inhibition (INH)” value is reported as >80%. Besides, the viability at 24 h, 1 µM in data set [8] worked out at 110%.

With `Oc1cc(O)cc(CCCc2ccc3c(c2)OCO3)c1`, the inhibition at 1 µM in [1] worked out at 40.8%. Besides, in the data set on RAW264.7 [2], the “fold change (FC)” value was 0.74. Further, in the data set with RAW264.7 [9], the inhibition result was “Dose-dependent effect”. The inhibition at 10 µM in [3] is 53.6%. In addition, the viability at 24 h, 10 µM in [4] worked out at 102%. Moreover, in [5], the IC50 at 24 h was 1.3 µM. In addition, the viability at 24 h, 50 µM in [6] was 86.7%. In addition, the viability at 24 h, 100 µM in data set [7] was found to be 70.4%. Also, the “inhibition (INH)” value in data set [10] was >80%. The viability at 24 h, 1 µM in data set [8] came out at 116%.

In the case of `COc1cc(CCc2cc(OC)c(OC)cc2O)ccc1O`, the inhibition at 1 µM in data set [1] was 35.2%. For the same molecule, the “fold change (FC)” value in the data set with RAW264.7 [2] is given as 1.12. Also, in data set [3], the inhibition at 10 µM was 29.5%. Besides, in data set [4], the viability at 24 h, 10 µM came out at 124%. For the same molecule, in data set [5], the IC50 at 24 h came to 13.8 µM. In addition, in [6], the viability at 24 h, 50 µM was 128%. Also, the viability at 24 h, 100 µM in [7] came out at 133%. The “inhibition (INH)” value in data set [10] was >80%. In addition, the viability at 24 h, 1 µM in data set [8] stood at 120%.

`COc1ccc(CCc2ccc(O)c(O)c2OC)cc1OC`: in data set [1], the inhibition at 1 µM was 24.3%. The “fold change (FC)” value in the data set with RAW264.7 [2] came out at 0.65. Besides, the inhibition result in the data set with RAW264.7 [9] is “Dose-dependent effect”. Besides, the inhibition at 10 µM in data set [3] came out at 75.5%. For the same molecule, in data set [4], the viability at 24 h, 10 µM came to 99.9%. In addition, the IC50 at 24 h in [5] was found to be 2.98 µM. Also, the viability at 24 h, 50 µM in data set [6] worked out at 94.8%. In addition, the viability at 24 h, 100 µM in data set [7] amounted to 81.9%. In addition, the “inhibition (INH)” value in data set [10] is >80%. The viability at 24 h, 1 µM in [8] turned out to be 106%.

Take `COc1ccc(CCc2ccc(O)c(O)c2O)cc1OC`: the inhibition at 1 µM in [1] worked out at 42.7%. Also, in the data set with RAW264.7 [2], the “fold change (FC)” value stood at 0.92. Besides, the inhibition result in the data set on RAW264.7 [9] was “Dose-dependent effect”. For the same molecule, in data set [3], the inhibition at 10 µM was 47%. The viability at 24 h, 10 µM in [4] came out at 114%. For the same molecule, the IC50 at 24 h in data set [5] came out at 6.02 µM. Moreover, in data set [6], the viability at 24 h, 50 µM amounted to 128%. In addition, the viability at 24 h, 100 µM in [7] turned out to be 133%. The “inhibition (INH)” value in [10] is >80%. The viability at 24 h, 1 µM in [8] came to 114%.

Regarding `Oc1cc(O)cc(CCc2ccc3c(c2)OCO3)c1`, the inhibition at 1 µM in data set [1] was found to be 17%. Also, the “fold change (FC)” value in the data set with RAW264.7 [2] is listed as 0.93. In addition, the inhibition result in the data set with RAW264.7 [9] was “Dose-dependent effect”. Besides, the inhibition at 10 µM in data set [3] was determined as 28.3%. The viability at 24 h, 10 µM in data set [4] came to 90.8%. For the same molecule, the IC50 at 24 h in data set [5] amounted to 14.5 µM. The viability at 24 h, 50 µM in data set [6] was found to be 82.7%. The viability at 24 h, 100 µM in data set [7] was 78.9%. Moreover, the “inhibition (INH)” value in [10] is reported as >80%. Besides, the viability at 24 h, 1 µM in data set [8] is 96.8%.

For the molecule `COc1cc(CCc2cc(OC)c(O)c(OC)c2)ccc1O` [MOSCATILIN], the inhibition at 1 µM in data set [1] was 7.4%. The “fold change (FC)” value in the data set with RAW264.7 [2] is on record as 0.93. In the data set on RAW264.7 [9], the inhibition entry is “Dose-dependent effect”. For the same molecule, the inhibition at 10 µM in [3] turned out to be 78.4%. For the same molecule, in [4], the viability at 24 h, 10 µM was determined as 52.9%. Also, the IC50 at 24 h in data set [5] worked out at 4.4 µM. Besides, in data set [6], the viability at 24 h, 50 µM worked out at 47%. For the same molecule, the viability at 24 h, 100 µM in [7] was found to be 59.6%. The “inhibition (INH)” value in [10] is given as >80%. Further, in [8], the viability at 24 h, 1 µM is 143%.

Regarding `COc1ccc(CCCc2ccc(O)c(O)c2OC)cc1OC`, the inhibition at 1 µM in [1] came to 36.9%. Besides, in the data set with RAW264.7 [2], the “fold change (FC)” value came to 0.39. Also, the inhibition result with RAW264.7 [9] was “Dose-dependent effect”. In addition, the inhibition at 10 µM in data set [3] amounted to 100%. In data set [4], the viability at 24 h, 10 µM is 103%. Also, the IC50 at 24 h in data set [5] stood at 1.84 µM. For the same molecule, the viability at 24 h, 50 µM in [6] came out at 86.3%. Further, in data set [7], the viability at 24 h, 100 µM was 61.9%. In addition, the “inhibition (INH)” value in data set [10] was >80%. The viability at 24 h, 1 µM in [8] was determined as 118%.
